Data set [1] in a line: Cytotoxicity of drugs used in pseudovirus experiments (MTS). Type of data set: cell-based. The settings on record: human; 293T-hACE2 cells, MTS assay at 48 hours, n = 3. The protocol: Cells were seeded into 96-well plates and exposed to serially diluted drugs for 48 h. Cell viability was determined using MTS (Promega, Madison, WI, USA), according to the manufacturer’ s instructions. The absorbance was measured in Varioskan Flash (Thermo) at 490 nm. Data were normalized to the control group (DMSO). CC50 values were calculated by concentration-response curve-fitting using GraphPad Prism.
293T-hACE2 cells were treated with serially diluted drugs and cytotoxicity was determined by MTS assay at 48 hours (n = 3).

Data set [2] deals with SARS-CoV-2. The data set is described as follows: Time-of-addition experiment. It is filed as cell-based. Particulars: Vero E6 cells, qRT-PCR at 24 h p.i. and nucleoprotein Western blot. How it is done: Time-of-addition experiment
Vero E6 cells were plated into 6-well plates and grew overnight. During “Full-time” treatment, cells were first treated with drug for two hours, and then infected with the virus for two hours. After that, the mixed supernatant was removed and cells were washed twice with PBS and finally cultured in fresh medium containing the same concentration of drug. For “Entry” treatment, pre-treatment and infection operations were similar to that in “Full-time” treatment. However, cells were cultured in drug-free medium after the mixed supernatant removed. As for “Post-entry” treatment, cells were infected with virus for 2 h before treated with drug for 2 h. Then the mixture was removed and fresh medium containing drug was added after cells were washed with PBS. The DMSO-control group was treated in the same way as “Full-time” group. For quantitative PCR, the MOI was controlled at 0.05 and supernatant was harvest at 24 h post infection. While for western blot, MOI was controlled at 0.30 and cells were harvest at 72 h post infection to identify the virus protein expression.

The next data set concerns Vero E6 cells. Kind of data set: Morphological observations, cytoplasmic vacuolization. Type of data set: cell-based, African green monkey. The settings on record: for induction of cytoplasmic vacuoles: Vero E6 cells, 5 μM, 8 h. The protocol: Morphological observations
Cells were seeded into 96-well plates and treated with test drugs for indicated time periods. Pictures of cells were subsequently obtained using Biotek Cytation-5&BioSpa8.

Data set [3] relates to SARS-CoV-2. Kind of data set: Cytopathic effect (CPE) inhibition assay in Vero E6 cells. Particulars: wild-type SARS-CoV-2, MOI = 0.1, 48 h. Type of data set: cell-based.
Data set [4] in a line: Antiproliferation (MTS) assay, cytotoxicity. Type of data set: cell-based. The settings on record: African green monkey, Vero E6 cells. How it is done: Cell viability was determined using MTS (Promega, Madison, WI, USA), according to the manufacturer’ s instructions. The absorbance was measured in Varioskan Flash (Thermo) at 490 nm. Data were normalized to the control group (DMSO). CC50 values were calculated by concentration-response curve-fitting using GraphPad Prism.

The test system of another data set is 293T-ACE2iRb3 cells. The data set is described as follows: Visualization of SARS-CoV-2 cell entry with STG probe. It is filed as cell-based, human. The settings on record: pretreated with 2 μM for 1 h, 3 h post STG incubation. How it is done:
Visulization of SARS-CoV-2 cell entry
To visualize the effect of drugs on viral entry, 293T-ACE2iRb3 cells were pretreated with serially diluted drugs for 1 h before STG probes addition for further incubation. Cell images shown in Fig 1e were acquired using a 100× oil immersion objective. The data shown in Fig S3 was derived from images acquired on Opera Phenix using 40× water immersion objective. For images of Fig 1e, cells were gently washed twice with PBS after 3 h incubation with STG, following a paraformaldehyde fixation before imaging. Cell images involved in Fig S3 were obtained under wash-free and live-cell conditions. The construction of STG probe used here and the image quantitative analysis were performed as previously described^1.
All drugs were tested in a 3-fold dilution series and the initial drug concentration was 15 μM. Three and five replicate wells were performed for the DMSO and drug groups, respectively. 25 fields of each well were imaged for quantitative analyses after 3 h incubation with STG-probe.

Another data set concerns the target T1, PIKfyve (Homo sapiens, UniProt Q9Y2I7).
T1 construct: purchased Eurofins DiscoverX Corporation (KINOMEscan service); host or cells: HEK-293
The data set is described as follows: KINOMEscan competitive binding assay, Kds determination. An excerpt:
KINOMEscan technology is a competitive affinity-based binding assay provided by Eurofins DiscoverX Corporation^3. Briefly, kinases were produced in HEK-293 cells and tagged with DNA for qPCR detection. Affinity resins were generated by treating streptavidin-coated magnetic beads with biotinylated small molecule ligands. For binding assays, the liganded beads were combined with DNA-tagged kinases and the test compounds. DMSO was used as a control. Compounds that bind to the DNA-tagged kinases will prevent these kinases binding with immobilized ligands and reduce the amount of the corresponding kinases captured on solid support. Kds were determined using 11 serial threefold dilutions of the test compounds and a DMSO control.
Supplementary Figure S1. The equilibrium dissociation constant (Kd) for XMU-MP-7 with PIKfyve was determined from 2 independent titration curves.

Another data set has as its system cathepsin B. The data set is described as follows: Cathepsin B activation, Western blot. Type of data set: cell-based, human. The settings on record: A549 cells, time- and dose-dependent.
Data set [5] is described as follows: Pharmacokinetics after single intravenous and oral administration. It is filed as in vivo. Particulars: Sprague Dawley, plasma, rat; for MRT inf: read-out: MRT(0-∞). The protocol: The pharmacokinetics of XMU-MP-7 were determined following single intravenous and oral administration in Sprague Dawley rat (N = 3/each) at the dose indicated. Blood samples were collected at 0.08, 0.25, 0.5, 1, 2, 4, 8 & 24 hr (IV) & 0.25, 0.5, 1, 2, 4, 6, 8 & 24 hr (PO) post dose. Then the samples were quantified by LC-MS/MS, and data analysis was conducted using WinNonlin V6.3. IV = intravenous injection, PO = oral delivery, Tmax = time of maximum plasma concentration, Cmax = maximum plasma concentration, AUC = area under the curve (measure of exposure), T1/2 = half life, Cl = plasma clearance, Vd = volume of distribution, F = oral bioavailability.

For data set [6], the system named is SARS-CoV-2 wild-type isolate XM088T. The data set is described as follows: Antiviral efficacy assay, qRT-PCR of virus released in supernatants. Type of data set: cell-based. Particulars: MOI of 0.05, pretreated 2 h, qRT-PCR at 48 h p.i., n = 3.
Details of data set [7]: method as in PMID 31628917. The settings on record: patients with Crohn’s disease and rheumatoid arthritis; cited from earlier work.
[8] abbreviates: Severe acute respiratory syndrome coronavirus 2, Vero C1008, Vero E6 cells.

Each structure is given as a SMILES string. Read-outs that look alike come from different tables or passages of the source.

T1 sequence (Q9Y2I7 whole entry): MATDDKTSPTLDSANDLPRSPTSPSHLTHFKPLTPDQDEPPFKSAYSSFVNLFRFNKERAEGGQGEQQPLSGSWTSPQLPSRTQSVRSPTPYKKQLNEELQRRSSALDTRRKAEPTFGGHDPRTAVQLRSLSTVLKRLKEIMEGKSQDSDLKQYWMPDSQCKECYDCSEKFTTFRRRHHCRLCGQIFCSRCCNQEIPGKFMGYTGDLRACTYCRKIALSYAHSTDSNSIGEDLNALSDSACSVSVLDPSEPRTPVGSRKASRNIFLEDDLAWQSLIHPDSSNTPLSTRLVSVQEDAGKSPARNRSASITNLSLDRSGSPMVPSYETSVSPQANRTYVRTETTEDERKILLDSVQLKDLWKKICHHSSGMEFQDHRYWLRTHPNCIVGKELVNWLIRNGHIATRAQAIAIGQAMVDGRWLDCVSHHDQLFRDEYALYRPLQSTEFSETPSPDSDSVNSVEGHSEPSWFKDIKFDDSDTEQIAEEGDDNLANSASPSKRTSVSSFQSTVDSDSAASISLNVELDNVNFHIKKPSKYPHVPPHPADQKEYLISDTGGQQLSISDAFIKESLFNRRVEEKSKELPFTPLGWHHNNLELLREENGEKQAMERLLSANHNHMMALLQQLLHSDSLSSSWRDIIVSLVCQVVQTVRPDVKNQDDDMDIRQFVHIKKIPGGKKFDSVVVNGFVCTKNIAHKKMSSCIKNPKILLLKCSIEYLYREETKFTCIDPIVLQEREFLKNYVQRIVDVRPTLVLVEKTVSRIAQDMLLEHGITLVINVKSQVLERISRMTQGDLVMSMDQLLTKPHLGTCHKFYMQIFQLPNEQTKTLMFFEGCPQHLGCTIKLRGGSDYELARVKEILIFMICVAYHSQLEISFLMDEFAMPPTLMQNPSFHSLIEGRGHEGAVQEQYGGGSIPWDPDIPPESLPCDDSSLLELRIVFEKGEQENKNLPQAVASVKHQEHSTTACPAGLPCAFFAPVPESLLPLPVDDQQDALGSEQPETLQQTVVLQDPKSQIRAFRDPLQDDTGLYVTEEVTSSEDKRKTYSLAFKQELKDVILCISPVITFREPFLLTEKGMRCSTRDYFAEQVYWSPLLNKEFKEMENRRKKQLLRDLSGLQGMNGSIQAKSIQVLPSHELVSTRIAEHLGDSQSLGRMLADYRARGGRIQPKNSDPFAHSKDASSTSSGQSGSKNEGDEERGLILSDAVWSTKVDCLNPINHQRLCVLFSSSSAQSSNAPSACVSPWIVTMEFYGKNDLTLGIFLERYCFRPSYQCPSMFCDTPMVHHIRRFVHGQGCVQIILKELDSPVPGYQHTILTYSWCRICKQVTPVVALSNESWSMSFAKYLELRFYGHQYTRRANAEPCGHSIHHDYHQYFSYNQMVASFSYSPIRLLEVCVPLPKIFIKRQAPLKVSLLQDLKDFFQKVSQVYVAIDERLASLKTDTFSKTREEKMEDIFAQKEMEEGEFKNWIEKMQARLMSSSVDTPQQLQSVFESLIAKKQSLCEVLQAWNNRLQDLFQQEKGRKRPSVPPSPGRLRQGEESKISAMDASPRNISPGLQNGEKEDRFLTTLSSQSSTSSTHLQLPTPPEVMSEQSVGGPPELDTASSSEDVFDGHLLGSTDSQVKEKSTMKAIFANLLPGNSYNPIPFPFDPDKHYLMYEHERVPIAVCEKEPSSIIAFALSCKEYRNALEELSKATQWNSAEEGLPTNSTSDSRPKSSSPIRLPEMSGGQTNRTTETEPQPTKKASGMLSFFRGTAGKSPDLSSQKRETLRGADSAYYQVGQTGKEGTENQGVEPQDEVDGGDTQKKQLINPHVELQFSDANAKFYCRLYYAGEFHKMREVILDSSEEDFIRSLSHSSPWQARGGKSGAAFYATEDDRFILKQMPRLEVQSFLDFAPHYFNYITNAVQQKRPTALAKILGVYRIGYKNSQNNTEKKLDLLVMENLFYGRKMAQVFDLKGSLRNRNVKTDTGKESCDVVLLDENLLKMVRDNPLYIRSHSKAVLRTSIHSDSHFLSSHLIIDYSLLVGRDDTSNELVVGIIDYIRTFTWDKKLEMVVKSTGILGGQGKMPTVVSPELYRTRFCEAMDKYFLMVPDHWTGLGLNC

In data set [1], `COc1ccc(C(=O)Nc2cccc(C(F)(F)F)c2)cc1Nc1nc(-c2cccnc2)c2[nH]ccc2n1` [XMU-MP-7] came in with a CC50 at 48 h above 10 µM. Further, the “stage of infection at which the drug acts” value with SARS-CoV-2 [2] was “potent antiviral roles at both entry and post-entry stages”. Besides, in the data set on Vero E6 cells, the “time to visible cytoplasmic vacuoles” value is reported as “less than 20 min” and the “induction of cytoplasmic vacuoles” value is on record as “dramatically induced cytoplasmic vacuoles”. Besides, the “rescue of cytopathic effect” value in the data set on SARS-CoV-2 [3] is given as “significantly rescued the cytopathic effects”. The compound further yielded a CC50 at 48 h in data set [4] above 150 µM. In addition, the “STG probe internalization (confocal images)” value (“STG probe internalization” below) in the data set with 293T-ACE2iRb3 cells is “almost completely trapped on the enlarged cytoplasmic vacuoles”. The same compound yielded a Kd on PIKfyve of 0.0064 µM. For the same compound, the “maturation of active cathepsin B” value with cathepsin B is on record as “impaired the maturation of active cathepsin B”. For the same compound, in data set [5] (IV, 2 mg/kg), the total exposure AUC(0-inf) is 4250 ng·h/mL, the AUC(0-t) is 4250 ng·h/mL, the C0 was 14000 ng/mL and the Tmax was 0.08 h. Also, in data set [5] (IV, 2 mg/kg), the Vd is 0.2 L/kg, the clearance amounted to 7.88 mL/min/kg, the half-life is 0.608 h and the MRT inf was 0.429 h. Further, in data set [5] (PO, 10 mg/kg), the AUC(0-inf) turned out to be 2210 ng·h/mL, the AUC(0-t) was 2200 ng·h/mL, the peak level (Cmax) was 429 ng/mL and the Tmax is 2.33 h. Moreover, in data set [5] (PO, 10 mg/kg), the half-life was 3.06 h and the MRT inf came to 3.81 h. Besides, the bioavailability in data set [5] (PO, 10 mg/kg, read-out: F (oral bioavailability)) stood at 10.4%. For the same compound, the EC50 in [6] (setting [8]) came to 0.0093 µM.
Compound `CCN(CC)CCCC(C)Nc1ccnc2cc(Cl)ccc12` (stereo not drawn) [Chloroquine] returned a CC50 at 48 h in [4] (48 h, n = 3) of 54.8 µM. For the same compound, the EC50 was 0.549 µM in data set [6] (setting [8]) and around 0.5 µM in data set [6] (Vero E6 cells).
With `CC(C)(C)[C@H](NC(=O)C(F)(F)F)C(=O)N1C[C@H]2[C@@H]([C@H]1C(=O)N[C@H](C#N)C[C@@H]1CCNC1=O)C2(C)C` [PF-07321332], in [6] (Vero E6 cells, read-out: EC50), the EC50 worked out at 0.487 µM.
`CCC(CC)COC(=O)[C@H](C)N[P@](=O)(OC[C@H]1O[C@@](C#N)(c2ccc3c(N)ncnn23)[C@H](O)[C@@H]1O)Oc1ccccc1` [Remdesivir]: the “stage of infection at which the drug acts” value in the data set on SARS-CoV-2 [2] was “only exerted an inhibitory effect at post-entry stage”. Further, in data set [4] (48 h, n = 3), the CC50 at 48 h was above 150 µM. Further, the “STG probe internalization” value in the data set on 293T-ACE2iRb3 cells is recorded as “STG entered the cytoplasm”. Also, in data set [6] (setting [8]), the EC50 came out at 1.64 µM.
With `Cc1ccc(NC(=O)c2cccc(C(F)(F)F)c2)cc1Nc1nc(-c2ccncc2)c2[nH]ccc2n1` [cmpd 24], the CC50 at 48 h was above 10 µM in data set [1] and 51.7 µM in data set [4] (48 h, n = 3). For the same compound, the “induction of cytoplasmic vacuoles” value in the data set on Vero E6 cells is recorded as “could not induce visible vacuoles”. For the same compound, in the data set with 293T-ACE2iRb3 cells, the “STG probe internalization” value is “STG entered the cytoplasm”. For the same compound, the Kd at PIKfyve is above 30 µM. In [6] (setting [8]), the EC50 amounted to 12.3 µM.
In turn, `Cc1cccc(/C=N/Nc2cc(N3CCOCC3)nc(OCCc3ccccn3)n2)c1` [Apilimod] returned a CC50 at 48 h in [1] above 10 µM. Besides, in the data set on Vero E6 cells, the “time to visible cytoplasmic vacuoles” value is recorded as “less than 20 min” and the “induction of cytoplasmic vacuoles” value was “induced cytoplasmic vacuoles”. In the data set with SARS-CoV-2 [3], the “rescue of cytopathic effect” value is given as “significantly rescued the cytopathic effects”. This compound registered a CC50 at 48 h in data set [4] (48 h, n = 3) of 41.8 µM. The “STG probe internalization” value in the data set with 293T-ACE2iRb3 cells is recorded as “almost completely trapped on the enlarged cytoplasmic vacuoles”. Besides, in data set [7], the bioavailability result was “poor bioavailability” and the plasma concentration result is “unexpected low plasma concentration”. Further, in data set [6] (setting [8]), the EC50 is below 0.0069 µM.

These data come from PMC9127493 (Signal Transduction and Targeted Therapy, 2022).
